For five compounds, EC50 results are on record in patent US12252524B2, “GIP/GLP1 co-agonist compounds” (Eli Lilly and Company, priority 2018, dated 2025).

Assay [1] has as its target human GLP-1 receptor (GLP-1R) (Homo sapiens, UniProt P43220). Nature of the assay: cAMP pharmacological functional assay in presence of casein, hGLP-1R. Format: cell-based. As to conditions: HEK293 cells expressing hGLP-1R, 0.1% Casein, geometric mean; read-out: hGLP1R cAMP Rel EC50 nM (SEM, n).
Assay [2] has as its target T1, gastric inhibitory peptide receptor (GIPR) (Homo sapiens, UniProt P48546).
T1 sequence (P48546 22-466): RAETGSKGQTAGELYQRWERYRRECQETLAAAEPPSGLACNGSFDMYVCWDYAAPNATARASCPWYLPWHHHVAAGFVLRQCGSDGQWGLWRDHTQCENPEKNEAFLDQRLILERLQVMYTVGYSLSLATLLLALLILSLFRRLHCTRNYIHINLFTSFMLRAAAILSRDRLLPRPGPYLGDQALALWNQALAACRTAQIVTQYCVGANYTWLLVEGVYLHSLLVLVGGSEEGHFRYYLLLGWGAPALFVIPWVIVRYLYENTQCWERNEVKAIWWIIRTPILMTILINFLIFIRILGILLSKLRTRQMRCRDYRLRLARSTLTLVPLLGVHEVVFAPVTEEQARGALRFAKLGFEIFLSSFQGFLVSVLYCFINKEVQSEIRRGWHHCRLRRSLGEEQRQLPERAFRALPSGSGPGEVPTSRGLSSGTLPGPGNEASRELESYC
The assay can be described thus: cAMP pharmacological functional assay in presence of casein, hGIPR. Format: cell-based. The following applies: HEK293 cells expressing hGIPR, 0.1% Casein, geometric mean; read-out: hGIPR cAMP Rel EC50 nM (SEM, n).

Numbered stars: 1 amine (or outer) side, 2 acyl side, 3 side chain; on linkers, the order of the positions; unused ones are H or OH. Square brackets hold non-standard residues; d marks the D form. Side chains are listed from the residue outwards. Peptide text beside a SMILES is read from it. * marks the point of attachment. C20 diacid = O=C(O)CCCCCCCCCCCCCCCCCCC(=O)*; C18 diacid = O=C(O)CCCCCCCCCCCCCCCCC(=O)*; αMePhe(2-F) = C[C@](N)(Cc1ccccc1F)C(=O)O; γGlu = O=C(O)[C@H](CCC(=O)[*:2])N[*:1]; αMeL = CC(C)C[C@](C)(N)C(=O)O; AEEA = NCCOCCOCC(=O)O; Aib = CC(C)(N)C(=O)O A value given as a limit tells only on which side of the number the result lay.

Sequence of human GLP-1 receptor (GLP-1R) (P43220 24-463): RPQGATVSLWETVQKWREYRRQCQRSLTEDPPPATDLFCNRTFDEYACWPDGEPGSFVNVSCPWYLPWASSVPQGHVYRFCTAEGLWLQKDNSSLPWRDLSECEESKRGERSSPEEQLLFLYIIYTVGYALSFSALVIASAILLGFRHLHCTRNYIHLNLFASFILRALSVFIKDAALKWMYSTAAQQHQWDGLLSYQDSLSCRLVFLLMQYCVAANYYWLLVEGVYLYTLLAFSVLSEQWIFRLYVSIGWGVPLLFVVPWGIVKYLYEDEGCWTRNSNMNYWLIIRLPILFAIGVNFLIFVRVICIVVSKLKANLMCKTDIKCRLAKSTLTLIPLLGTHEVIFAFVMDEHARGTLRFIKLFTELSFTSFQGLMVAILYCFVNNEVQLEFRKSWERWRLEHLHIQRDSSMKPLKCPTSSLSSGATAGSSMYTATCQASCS

What is called EC50 is the concentration needed to bring the measured effect to its halfway point. In the case of `CC[C@H](C)[C@H](NC(=O)[C@H](CC(C)C)NC(=O)[C@H](Cc1ccc(O)cc1)NC(=O)[C@H](CCC(=O)O)NC(=O)[C@@H](NC(=O)[C@H](Cc1ccccc1)NC(=O)[C@H](C)NC(=O)[C@@H](NC(=O)[C@H](CCC(N)=O)NC(=O)[C@H](C)NC(=O)[C@H](CCCCNC(=O)COCCOCCNC(=O)COCCOCCNC(=O)CC[C@H](NC(=O)CCCCCCCCCCCCCCCCCCC(=O)O)C(=O)O)NC(=O)[C@H](CCCCN)NC(=O)[C@H](CC(=O)O)NC(=O)[C@H](CC(C)C)NC(=O)[C@H](CC(C)C)NC(=O)[C@@H](NC(=O)[C@H](CO)NC(=O)[C@H](Cc1ccc(O)cc1)NC(=O)[C@H](CC(=O)O)NC(=O)[C@H](CO)NC(=O)[C@@H](NC(=O)[C@H](Cc1ccccc1)NC(=O)[C@@H](NC(=O)CNC(=O)[C@H](CCC(=O)O)NC(=O)C(C)(C)NC(=O)[C@@H](N)Cc1ccc(O)cc1)[C@@H](C)O)[C@@H](C)O)[C@@H](C)CC)[C@@H](C)O)[C@@H](C)CC)C(=O)N[C@@H](CCC(=O)O)C(=O)NCC(=O)NCC(=O)N1CCC[C@H]1C(=O)N[C@@H](CO)C(=O)N[C@@H](CO)C(=O)NCC(=O)N[C@@H](C)C(=O)N1CCC[C@H]1C(=O)N1CCC[C@H]1C(=O)N1CCC[C@H]1C(=O)N[C@@H](CO)C(N)=O` [Example 262] (H-Y[Aib]EGTFTSDYSILLDKK([AEEA-AEEA-γGlu-C20 diacid])AQTAFIEYLIEGGPSSGAPPPS-NH2), the EC50 in assay [1] amounted to 0.0943 nM; in assay [2], 0.13 nM.

Consider `CC[C@H](C)[C@H](NC(=O)[C@H](CC(C)C)NC(=O)[C@H](Cc1ccc(O)cc1)NC(=O)[C@H](CCC(=O)O)NC(=O)[C@@H](NC(=O)[C@H](Cc1ccccc1)NC(=O)[C@H](C)NC(=O)[C@H](CO)NC(=O)[C@H](CCC(N)=O)NC(=O)[C@H](C)NC(=O)[C@H](CCCCNC(=O)COCCOCCNC(=O)COCCOCCNC(=O)CC[C@H](NC(=O)CCCCCCCCCCCCCCCCCCC(=O)O)C(=O)O)NC(=O)[C@H](CCCCN)NC(=O)[C@H](CC(=O)O)NC(=O)[C@H](CC(C)C)NC(=O)[C@H](CC(C)C)NC(=O)[C@@H](NC(=O)[C@H](CO)NC(=O)[C@H](Cc1ccc(O)cc1)NC(=O)[C@H](CC(=O)O)NC(=O)[C@H](CO)NC(=O)[C@@H](NC(=O)[C@H](Cc1ccccc1)NC(=O)[C@@H](NC(=O)CNC(=O)[C@H](CCC(=O)O)NC(=O)C(C)(C)NC(=O)[C@@H](N)Cc1ccc(O)cc1)[C@@H](C)O)[C@@H](C)O)[C@@H](C)CC)[C@@H](C)CC)C(=O)N[C@@H](CCC(=O)O)C(=O)NCC(=O)NCC(=O)N1CCC[C@H]1C(=O)N[C@@H](CO)C(=O)N[C@@H](CO)C(=O)NCC(=O)N[C@@H](C)C(=O)N1CCC[C@H]1C(=O)N1CCC[C@H]1C(=O)N1CCC[C@H]1C(=O)N[C@@H](CO)C(N)=O` [Example 263] (H-Y[Aib]EGTFTSDYSILLDKK([AEEA-AEEA-γGlu-C20 diacid])AQSAFIEYLIEGGPSSGAPPPS-NH2), for which the EC50 in assay [1] came out at 0.0785 nM; in assay [2], 0.317 nM.

Turning to `CC[C@H](C)[C@H](NC(=O)[C@H](CC(C)C)NC(=O)[C@H](Cc1ccc(O)cc1)NC(=O)[C@H](CCC(=O)O)NC(=O)[C@@H](NC(=O)[C@H](Cc1ccccc1)NC(=O)[C@H](C)NC(=O)[C@@H]1CCCN1C(=O)[C@H](CCC(N)=O)NC(=O)[C@H](C)NC(=O)[C@H](CCCCNC(=O)COCCOCCNC(=O)COCCOCCNC(=O)CC[C@H](NC(=O)CCCCCCCCCCCCCCCCC(=O)O)C(=O)O)NC(=O)[C@H](CCCCN)NC(=O)[C@H](CC(=O)O)NC(=O)[C@H](CC(C)C)NC(=O)[C@H](CC(C)C)NC(=O)[C@@H](NC(=O)[C@H](CO)NC(=O)[C@H](Cc1ccc(O)cc1)NC(=O)[C@H](CC(=O)O)NC(=O)[C@H](CO)NC(=O)[C@@H](NC(=O)[C@H](Cc1ccccc1)NC(=O)[C@@H](NC(=O)CNC(=O)[C@H](CCC(=O)O)NC(=O)C(C)(C)NC(=O)[C@@H](N)Cc1ccc(O)cc1)[C@@H](C)O)[C@@H](C)O)[C@@H](C)CC)[C@@H](C)CC)C(=O)N[C@@H](CCC(=O)O)C(=O)NCC(=O)NCC(=O)N1CCC[C@H]1C(=O)N[C@@H](CO)C(=O)N[C@@H](CO)C(=O)NCC(N)=O` [Example 274] (H-Y[Aib]EGTFTSDYSILLDKK([AEEA-AEEA-γGlu-C18 diacid])AQPAFIEYLIEGGPSSG-NH2), the results for the EC50 in assay [1] and in assay [2] were 14.5 nM and above 30 nM, respectively.

As to `CC[C@H](C)[C@H](NC(=O)[C@H](CC(C)C)NC(=O)[C@H](Cc1ccc(O)cc1)NC(=O)[C@H](CCC(=O)O)NC(=O)[C@@H](NC(=O)[C@H](Cc1ccccc1)NC(=O)[C@H](C)NC(=O)[C@@H]1CCCN1C(=O)[C@H](CCC(N)=O)NC(=O)[C@H](C)NC(=O)[C@H](CCCCNC(=O)COCCOCCNC(=O)COCCOCCNC(=O)CC[C@H](NC(=O)CCCCCCCCCCCCCCCCC(=O)O)C(=O)O)NC(=O)[C@H](CCCCN)NC(=O)[C@H](CC(=O)O)NC(=O)[C@H](CC(C)C)NC(=O)[C@H](CC(C)C)NC(=O)[C@@H](NC(=O)[C@H](CO)NC(=O)[C@H](Cc1ccc(O)cc1)NC(=O)[C@H](CC(=O)O)NC(=O)[C@H](CO)NC(=O)[C@@H](NC(=O)[C@H](Cc1ccccc1)NC(=O)[C@@H](NC(=O)CNC(=O)[C@H](CCC(=O)O)NC(=O)C(C)(C)NC(=O)[C@@H](N)Cc1ccc(O)cc1)[C@@H](C)O)[C@@H](C)O)[C@@H](C)CC)[C@@H](C)CC)C(=O)N[C@@H](CCC(=O)O)C(=O)NCC(=O)NCC(N)=O` [Example 275] (H-Y[Aib]EGTFTSDYSILLDKK([AEEA-AEEA-γGlu-C18 diacid])AQPAFIEYLIEGG-NH2), the results for the EC50 in assay [1] and in assay [2] were 14 nM and above 30 nM, respectively.

For `CC[C@H](C)[C@H](NC(=O)[C@H](CC(C)C)NC(=O)[C@H](Cc1ccc(O)cc1)NC(=O)[C@@H](CCC(=O)O)NC(=O)[C@@H](NC(=O)[C@H](Cc1ccccc1)NC(=O)[C@H](CCC(=O)O)NC(=O)C(C)(C)NC(=O)[C@H](CCC(N)=O)NC(=O)[C@H](C)NC(=O)[C@H](CCCCN)NC(=O)[C@H](CCC(=O)O)NC(=O)[C@H](CC(=O)O)NC(=O)[C@H](CC(C)C)NC(=O)[C@](C)(CC(C)C)NC(=O)[C@@H](NC(=O)[C@H](CO)NC(=O)[C@H](Cc1ccc(O)cc1)NC(=O)[C@H](CC(=O)O)NC(=O)[C@H](CO)NC(=O)[C@@H](NC(=O)[C@](C)(Cc1ccccc1F)NC(=O)[C@@H](NC(=O)CNC(=O)[C@H](CCC(=O)O)NC(=O)C(C)(C)NC(=O)[C@@H](N)Cc1ccc(O)cc1)[C@@H](C)O)[C@@H](C)O)[C@@H](C)CC)[C@@H](C)CC)C(=O)N[C@@H](CCC(=O)O)C(=O)NCC(=O)NCC(=O)N1CCC[C@H]1C(=O)N[C@@H](CO)C(=O)N[C@@H](CO)C(=O)NCC(=O)N[C@@H](C)C(=O)N1CCC[C@H]1C(=O)N1CCC[C@H]1C(=O)N1CCC[C@H]1C(=O)N[C@@H](CO)C(N)=O` [Example 276] (H-Y[Aib]EGT[αMePhe(2-F)]TSDYSI[αMeL]LDEKAQ[Aib]EFI[dE]YLIEGGPSSGAPPPS-NH2), the figures for the EC50 in assay [1] and in assay [2] were 0.108 nM and 0.0757 nM, respectively.
